From ChEMBL document CHEMBL4038308, “Lipophosphonoxins II: Design, Synthesis, and Properties of Novel Broad Spectrum Antibacterial Agents” (J Med Chem, 2017)
Values after ≈ are worked out from the molar mass of the structure shown. Active and inactive are the calls of the source. The calls are words filed in the database; no cut-off is given here.

Tests used:
[1] = Critical micellar concentration of the compound by capillary electrophoresis method
Escherichia coli [2] = test: Antibacterial activity against Escherichia coli CCM 3954 after 24 hrs by microdilution method; format: functional; conditions: CCM 3954, 24 h
Pseudomonas aeruginosa [3] = test: Antibacterial activity against Pseudomonas aeruginosa CCM 3955 after 24 hrs by microdilution method; format: functional; conditions: CCM 3955, 24 h
Enterococcus faecalis = test: Antibacterial activity against Enterococcus faecalis CCM 4224 after 24 hrs by microdilution method; format: functional; conditions: CCM 4224, 24 h
Staphylococcus aureus [4] = test: Antibacterial activity against Staphylococcus aureus CCM 4223 after 24 hrs by microdilution method; format: functional; conditions: CCM 4223, 24 h
Streptococcus agalactiae = test: Antibacterial activity against Streptococcus agalactiae after 24 hrs by microdilution method; format: functional
Pseudomonas aeruginosa [5] = test: Antibacterial activity against Pseudomonas aeruginosa 16575 after 24 hrs by microdilution method; format: functional; conditions: Pseudomonas aeruginosa, 16575, 24 h
[6] = tested on: Staphylococcus epidermidis; test: Antibacterial activity against Staphylococcus epidermidis 8700/B after 24 hrs by microdilution method; format: functional
Salmonella enteritidis = test: Antibacterial activity against Salmonella enteritidis S2-25 after 24 hrs by microdilution method; format: functional, Salmonella enterica subsp. enterica serovar Enteritidis; conditions: Salmonella enterica, S2-25, 24 h
Acinetobacter baumannii = test: Antibacterial activity against Acinetobacter baumannii A3-08 after 24 hrs by microdilution method; format: functional; conditions: A3-08, 24 h
[7] = tested on: Stenotrophomonas maltophilia; test: Antibacterial activity against Stenotrophomonas maltophilia S2-23 after 24 hrs by microdilution method; format: functional; conditions: S2-23, 24 h
Burkholderia multivorans = test: Antibacterial activity against Burkholderia multivorans after 24 hrs by microdilution method; format: functional
Escherichia coli [8] = test: Bactericidal activity against Escherichia coli CCM 3954 assessed as reduction in bacterial count at 6.25 to 25 mg/L after 45 mins by time kill assay; format: functional
Escherichia coli [9] = test: Bactericidal activity against Escherichia coli CCM 3954 assessed as reduction in bacterial count at 6.25 to 12.5 mg/L after 24 hrs by time kill assay; format: functional
Staphylococcus aureus [10] = test: Bactericidal activity against Staphylococcus aureus CCM 4223 assessed as reduction in bacterial count at 6.25 to 25 mg/L after 15 mins by time kill assay; format: functional
Staphylococcus aureus [11] = test: Bactericidal activity against Staphylococcus aureus CCM 4223 assessed as reduction in bacterial count at 25 mg/L after 5 hrs by time kill assay; format: functional
Staphylococcus aureus [12] = test: Bactericidal activity against Staphylococcus aureus CCM 4223 assessed as reduction in bacterial count at 12.5 mg/L after 6 hrs by time kill assay; format: functional
Bacillus subtilis [13] = test: Antibacterial activity against Bacillus subtilis assessed as inhibition of DNA synthesis at 2.5 mg/L after 50 mins by [3H]thymidine incorporation assay; format: functional
Bacillus subtilis [14] = test: Antibacterial activity against Bacillus subtilis assessed as inhibition of peptidoglycan synthesis at 2.5 mg/L after 50 mins by [3H]-N-acetylglucosamine incorporation assay; format: functional
Bacillus subtilis [15] = test: Antibacterial activity against Bacillus subtilis assessed as inhibition of plasma membrane lipids synthesis at 2.5 mg/L after 50 mins by [3H]-sodium acetate incorporation assay; format: functional
Bacillus subtilis [16] = test: Antibacterial activity against Bacillus subtilis assessed as inhibition of protein synthesis at 2.5 mg/L after 50 mins by [35S]-methionine incorporation assay; format: functional
Bacillus subtilis [17] = test: Antibacterial activity against Bacillus subtilis assessed as rupture of cell envelope at 10 mg/L after 10 mins by scanning electron microscopic analysis; format: functional
Lipid bilayer = test: Binding affinity to DOPG large unilamellar vesicle assessed as carboxyfluorescein leakage at 10 mg/L after 20 secs by fluorescence-based assay relative to control
Staphylococcus aureus [18] = test: Induction of cytoplasmic membrane permeabilization in Staphylococcus aureus CCM 4223 assessed as increase in propidium iodide fluorescence intensity at 5 mg/L by spectrofluorometric analysis; format: functional
[19] = tested on: Staphylococcus epidermidis; test: Induction of cytoplasmic membrane permeabilization in Staphylococcus epidermidis 8700/B assessed as increase in propidium iodide fluorescence intensity at 5 mg/L by spectrofluorometric analysis; format: functional
Escherichia coli [20] = test: Induction of cytoplasmic membrane permeabilization in Escherichia coli CCM 3954 assessed as increase in propidium iodide fluorescence intensity at 5 mg/L by spectrofluorometric analysis; format: functional
Pseudomonas aeruginosa [21] = test: Induction of cytoplasmic membrane permeabilization in Pseudomonas aeruginosa CCM 3955 assessed as increase in propidium iodide fluorescence intensity at 5 mg/L by spectrofluorometric analysis; format: functional
J774.A1 = test: Cytotoxicity against mouse J774A.1 cells assessed as damage to cell membrane by measuring propidium iodide intake at 5 mg/L by spectrofluorometric analysis; format: cell-based
TERT-RPE1 [22] = test: Cytotoxicity against human RPE1 cells assessed as reduction in cell viability after 48 hrs by ATPlite reagent based assay; conditions: tert-rpe1, 48 h
HepG2 [23] = test: Cytotoxicity against human HepG2 cells assessed as reduction in cell viability after 48 hrs by ATPlite reagent based assay; conditions: hepg2, 48 h
HepG2 [24] = test: Induction of apoptosis in human HepG2 cells assessed as caspase 3/7 activation up to 80 mg/L after 4 hrs by caspase-Glo 3/7 luminescent assay; format: cell-based; conditions: hepg2, 4 h
TERT-RPE1 [25] = test: Cytotoxicity against human RPE1 cells assessed as disruption of cell membrane integrity after 4 hrs by CytoTox-ONE-based assay; conditions: tert-rpe1, 4 h
HepG2 [26] = test: Cytotoxicity against human HepG2 cells assessed as disruption of cell membrane integrity after 4 hrs by CytoTox-ONE-based assay; conditions: hepg2, 4 h
[27] = Apparent permeability across apical to basolateral side in human Caco2 cells at 200 uM after 3 hrs by LC-MS analysis; format: ADME, cell-based; conditions: caco-2, 3 h
[28] = Chemical stability of compound at 50 to 500 mg/L at pH 0.18 after 24 hrs at room temperature by LC-MS analysis; format: physicochemical; conditions: buffer, pH 0.18, 24 h
[29] = Chemical stability of compound at 50 to 500 mg/L at pH 5 after 24 hrs at room temperature by LC-MS analysis; format: physicochemical; conditions: buffer, pH 5, 24 h
[30] = Chemical stability of compound at 50 to 500 mg/L at pH 8.8 after 24 hrs at room temperature by LC-MS analysis; format: physicochemical; conditions: buffer, pH 8.8, 24 h
Mus musculus [31] = test: Toxicity in ICR mouse assessed as mortality up to 2000 mg/kg, po administered as single dose measured for 2 weeks; format: organism-based; conditions: in vivo, 336 h
Mus musculus [32] = test: Toxicity in ICR mouse assessed as body weight loss up to 2000 mg/kg, po administered as single dose measured for 2 weeks; format: organism-based; conditions: in vivo, 336 h
Oryctolagus cuniculus [33] = test: Toxicity in topically applied rabbit assessed as skin irritation measured up to 14 days post dose; conditions: in vivo, topical_or_ocular, 336 h
Oryctolagus cuniculus [34] = test: Toxicity in topically dosed rabbit assessed as skin irritation by measuring behavioral abnormalities measured up to 7 days post dose; format: organism-based; conditions: in vivo, topical_or_ocular, 168 h
[35] = Chemical stability of compound at 50 to 500 mg/L at pH 0.18 after 24 hrs at 37 degC by LC-MS analysis; format: physicochemical; conditions: buffer, pH 0.18, 24 h
[36] = Chemical stability of compound at 50 to 500 mg/L at pH 8.8 after 24 hrs at 37 degC by LC-MS analysis; format: physicochemical; conditions: buffer, pH 8.8, 24 h

CCCCCCCCCCCCCCOP(=O)(CCN(CCCN)CCCN)OC[C@H]1O[C@@H](n2ccc(=O)[nH]c2=O)[C@H](O)[C@@H]1O (stereo partly drawn)
CMC [1]: 4.55 mM
MIC (Escherichia coli [2]): 6.25 µg/mL (≈ 9.44 µM)
MIC (Pseudomonas aeruginosa [3]): 0.78 µg/mL (≈ 1.18 µM)
MIC (Enterococcus faecalis): 25 µg/mL (≈ 37.8 µM)
MIC (Staphylococcus aureus [4]): 6.25 µg/mL (≈ 9.44 µM)
MIC (Streptococcus agalactiae): 3.13 µg/mL (≈ 4.73 µM)
MIC (Pseudomonas aeruginosa [5]): 1.56 µg/mL (≈ 2.36 µM)
MIC [6]: 1.56 µg/mL (≈ 2.36 µM)
MIC (Salmonella enteritidis): 3.13 µg/mL (≈ 4.73 µM)
MIC (Acinetobacter baumannii): 12.5 µg/mL (≈ 18.9 µM)
MIC [7]: 12.5 µg/mL (≈ 18.9 µM)
MIC (Burkholderia multivorans): 50 µg/mL (≈ 75.5 µM)
Activity (Escherichia coli [8]): Active
Activity (Escherichia coli [9]): Active
Activity (Staphylococcus aureus [10]): Active
Activity (Staphylococcus aureus [11]): Active
Activity (Staphylococcus aureus [12]): Active
inhibition (Bacillus subtilis [13]): inactive
inhibition (Bacillus subtilis [14]): inactive
inhibition (Bacillus subtilis [15]): inactive
inhibition (Bacillus subtilis [16]): inactive
Activity (Bacillus subtilis [17]): Active
Activity (Lipid bilayer): Active
Activity (Staphylococcus aureus [18]): Active
Activity [19]: Active
Activity (Escherichia coli [20]): Active
Activity (Pseudomonas aeruginosa [21]): Active
Activity (J774.A1): Non-Toxic
Activity (TERT-RPE1 [22]): 43 mg/L
Activity (HepG2 [23]): 40.3 mg/L
Activity (HepG2 [24]): Non-Toxic
Activity (TERT-RPE1 [25]): Non-Toxic
Activity (HepG2 [26]): Non-Toxic
permeability [27]: Impermeable
Stability [28]: Stable
Stability [29]: Stable
Stability [30]: Stable
Activity (Mus musculus [31]): Non-Toxic
Activity (Mus musculus [32]): Non-Toxic
Activity (Oryctolagus cuniculus [33]): Non-Toxic
Activity (Oryctolagus cuniculus [34]): Non-Toxic
Stability [35]: Stable
Stability [36]: Stable
